In US20220298138A1, “ENZYME INHIBITORS” (KALVISTA PHARMACEUTICALS LIMITED, priority 2019, published 2022):

Experiments:
[1] = target: T1, Human Factor XIIa (Homo sapiens, UniProt P00748); test: Factor XIIa inhibitory activity in vitro (fluorogenic substrate H-DPro-Phe-Arg-AFC); format: biochemical; conditions: 25° C., class symbols, read-out: Human FXIIa IC50
T1 construct: purchased Enzyme Research Laboratories
T1 sequence (P00748 373-615 limits assumed): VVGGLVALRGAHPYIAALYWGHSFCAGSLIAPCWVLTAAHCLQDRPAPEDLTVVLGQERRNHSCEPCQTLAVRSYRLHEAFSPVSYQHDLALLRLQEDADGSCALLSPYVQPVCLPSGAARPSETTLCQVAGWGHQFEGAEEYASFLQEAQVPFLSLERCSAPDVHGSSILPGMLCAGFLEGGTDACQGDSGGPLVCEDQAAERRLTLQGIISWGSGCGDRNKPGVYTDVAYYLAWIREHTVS
Summary of the method: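 Enzyme incubated at 25° C with fluorogenic substrate H-DPro-Phe-Arg-AFC and a range of compound concentrations. Residual activity taken as initial reaction rate from […], giving IC50.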

[2] = target: T2, Human FXIa (Homo sapiens, UniProt P03951); test: FXIa inhibitory activity in vitro (fluorogenic substrate Z-Gly-Pro-Arg-AFC), selectivity; format: biochemical; conditions: 25° C.
T2 construct: Human FXIa (Enzyme Research Laboratories) was incubated; purchased Enzyme Research Laboratories
T2 sequence (P03951 388-625 limits assumed): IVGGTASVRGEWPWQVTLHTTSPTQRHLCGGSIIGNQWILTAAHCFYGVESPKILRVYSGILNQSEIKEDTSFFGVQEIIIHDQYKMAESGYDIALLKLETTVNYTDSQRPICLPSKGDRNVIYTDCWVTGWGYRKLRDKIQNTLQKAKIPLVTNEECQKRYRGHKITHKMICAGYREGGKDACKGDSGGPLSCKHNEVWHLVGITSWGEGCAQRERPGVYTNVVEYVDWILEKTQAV
T2 sequence (P03951 19-387 partner limits assumed): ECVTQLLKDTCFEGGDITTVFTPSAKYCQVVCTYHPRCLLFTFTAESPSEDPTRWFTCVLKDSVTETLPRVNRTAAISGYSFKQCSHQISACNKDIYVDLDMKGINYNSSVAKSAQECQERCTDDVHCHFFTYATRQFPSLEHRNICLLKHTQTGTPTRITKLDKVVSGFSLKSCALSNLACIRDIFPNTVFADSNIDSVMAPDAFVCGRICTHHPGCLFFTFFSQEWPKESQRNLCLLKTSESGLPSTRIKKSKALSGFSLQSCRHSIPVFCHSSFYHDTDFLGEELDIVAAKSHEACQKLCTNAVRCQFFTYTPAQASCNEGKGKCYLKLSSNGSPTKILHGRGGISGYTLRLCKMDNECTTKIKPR
Description: Determination of the % Inhibition for FXIa
Human FXIa (Enzyme Research Laboratories) was incubated at 25° C. with the fluorogenic substrate Z-Gly-Pro-Arg-AFC and various concentrations of the test compound. Residual enzyme activity (initial rate of reaction) was determined by measuring the change in fluorescence at 410 nm and the IC50 value for the test compound was determined.

[3] = numeric bound printed instead of category

| Compound | IC50 [1] | IC50 ([2]; category scale) | IC50 [2, 3] |
| --- | --- | --- | --- |
| C[C@H](NC(=O)[C@@H]1C=C(c2ccccc2)CN1)C(=O)NCc1ccc2c(N)nccc2c1 [Example 45.02] | 3 to 10 µM | 3 to 10 µM |  |
| C[C@H](NC(=O)[C@H]1C[C@H](c2ccccc2)CN1)C(=O)NCc1ccc2c(N)nccc2c1 [Example 45.03] | 1 to 3 µM | 3 to 10 µM |  |
| C[C@H](NC(=O)[C@H]1Cc2ccccc2CN1)C(=O)NCc1ccc2c(N)nccc2c1 [Example 45.04] | 10 to 40 µM | 3 to 10 µM |  |
| C[C@H](NC(=O)[C@@H]1NCc2ccccc21)C(=O)NCc1ccc2c(N)nccc2c1 [Example 45.05] | 10 to 40 µM | > 40 µM |  |
| Nc1nccc2cc(CNC(=O)C3(NC(=O)[C@H](N)CCc4ccccc4)CC3)ccc12 [Example 54.01] | 0.28 to 1 µM | > 40 µM |  |
| Nc1nccc2cc(CNC(=O)C3(NC(=O)[C@H](N)CCc4ccccc4)CCC3)ccc12 [Example 54.02] | 1 to 3 µM | 10 to 40 µM |  |
| Nc1nccc2cc(CNC(=O)C3(NC(=O)[C@H](N)CCc4ccccc4)CCOCC3)ccc12 [Example 54.03] | 3 to 10 µM | > 40 µM |  |
| CC(C)N[C@H](CCc1ccccc1)C(=O)N(C)[C@@H](C)C(=O)NCc1ccc2c(N)nccc2c1 [Example 65.01] | 0.28 to 1 µM | 3 to 10 µM |  |
| C[C@@H](C(=O)NCc1ccc2c(N)nccc2c1)N(C)C(=O)[C@H](N)CCc1ccccc1 [Example 65.02] | 1 to 3 µM | > 40 µM |  |
| N=C(N)c1ccc(CNC(=O)[C@H](Cc2cccc3ccccc23)NC(=O)[C@H]2CCCN2)cc1 [Example 71.01] | 0.1 to 0.279 µM |  | > 10 µM |
| N=C(N)c1ccc(CNC(=O)[C@H](Cc2cccc3ccccc23)NC(=O)c2ccccn2)cc1 [Example 71.02] | 1 to 3 µM |  | > 10 µM |
| CCC(C)[C@@H](N)C(=O)N[C@H](CC1CCCC2CCCCC21)C(=O)NCc1ccc(C(=N)N)s1 (stereo partly shown) [Example 71.03] | 1 to 3 µM | 1 to 3 µM |  |
| CC(C)[C@H](N)C(=O)N[C@H](CC1CCCC2CCCCC21)C(=O)NCc1ccc(C(=N)N)s1 (stereo partly shown) [Example 71.04] | 1 to 3 µM | 3 to 10 µM |  |
| N=C(N)c1ccc(CNC(=O)[C@H](Cc2ccccc2)NC(=O)[C@@H](CC2CCCCC2)NCC(=O)O)cc1 [Example 71.05] | 3 to 10 µM | 0.3 to 1 µM |  |
